For one test, the target named is T1, Adenosine receptor A1 (Homo sapiens, UniProt P30542).
T1 sequence (P30542 whole entry): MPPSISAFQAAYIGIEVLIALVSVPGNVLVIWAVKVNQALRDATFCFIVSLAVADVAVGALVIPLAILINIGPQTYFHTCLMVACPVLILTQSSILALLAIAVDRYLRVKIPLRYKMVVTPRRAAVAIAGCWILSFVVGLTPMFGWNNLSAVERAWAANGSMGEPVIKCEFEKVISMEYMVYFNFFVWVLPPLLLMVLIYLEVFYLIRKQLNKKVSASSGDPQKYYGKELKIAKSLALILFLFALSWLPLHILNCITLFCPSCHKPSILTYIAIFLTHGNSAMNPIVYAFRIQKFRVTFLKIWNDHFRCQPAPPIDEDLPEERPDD

Test [1] deals with T2, Alpha-2A adrenergic receptor (Homo sapiens, UniProt P08913).
T2 sequence (P08913 whole entry): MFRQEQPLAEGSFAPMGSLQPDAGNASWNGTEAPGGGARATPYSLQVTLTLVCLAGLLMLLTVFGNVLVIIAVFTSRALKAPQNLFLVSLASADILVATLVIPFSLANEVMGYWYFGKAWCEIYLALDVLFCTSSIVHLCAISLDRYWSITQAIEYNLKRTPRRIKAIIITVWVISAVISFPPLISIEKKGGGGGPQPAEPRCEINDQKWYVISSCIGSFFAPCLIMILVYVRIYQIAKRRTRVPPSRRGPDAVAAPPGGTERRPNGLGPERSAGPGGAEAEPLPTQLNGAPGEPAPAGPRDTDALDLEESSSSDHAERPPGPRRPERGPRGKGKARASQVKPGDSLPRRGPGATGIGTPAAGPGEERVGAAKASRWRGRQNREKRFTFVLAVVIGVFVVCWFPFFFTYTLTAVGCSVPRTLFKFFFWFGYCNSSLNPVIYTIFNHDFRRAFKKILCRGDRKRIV
The test is classed as functional, cell-based.

For test [2], the target named is T2, Alpha-2A adrenergic receptor. The test is classed as functional, cell-based. The source holds these as a separate data set.
The next test concerns the target Vasopressin V2 receptor (Homo sapiens, UniProt P30518).
The target in the next test is T3, B2 bradykinin receptor (Homo sapiens, UniProt P30411).
T3 sequence (P30411 whole entry): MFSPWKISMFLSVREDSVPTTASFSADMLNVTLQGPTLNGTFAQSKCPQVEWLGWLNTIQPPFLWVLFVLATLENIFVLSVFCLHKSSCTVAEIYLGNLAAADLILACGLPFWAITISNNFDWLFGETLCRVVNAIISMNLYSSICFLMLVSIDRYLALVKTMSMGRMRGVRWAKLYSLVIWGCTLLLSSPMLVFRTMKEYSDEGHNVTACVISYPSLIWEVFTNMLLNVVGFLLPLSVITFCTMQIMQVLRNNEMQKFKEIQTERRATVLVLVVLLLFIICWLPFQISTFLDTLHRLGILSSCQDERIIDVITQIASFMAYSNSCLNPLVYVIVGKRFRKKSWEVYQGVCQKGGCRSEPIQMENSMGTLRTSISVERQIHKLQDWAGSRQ

The target of another test is Cannabinoid receptor 1 (Homo sapiens, UniProt P21554). Format: functional, cell-based.
Sequence of Cannabinoid receptor 1 (P21554 whole entry): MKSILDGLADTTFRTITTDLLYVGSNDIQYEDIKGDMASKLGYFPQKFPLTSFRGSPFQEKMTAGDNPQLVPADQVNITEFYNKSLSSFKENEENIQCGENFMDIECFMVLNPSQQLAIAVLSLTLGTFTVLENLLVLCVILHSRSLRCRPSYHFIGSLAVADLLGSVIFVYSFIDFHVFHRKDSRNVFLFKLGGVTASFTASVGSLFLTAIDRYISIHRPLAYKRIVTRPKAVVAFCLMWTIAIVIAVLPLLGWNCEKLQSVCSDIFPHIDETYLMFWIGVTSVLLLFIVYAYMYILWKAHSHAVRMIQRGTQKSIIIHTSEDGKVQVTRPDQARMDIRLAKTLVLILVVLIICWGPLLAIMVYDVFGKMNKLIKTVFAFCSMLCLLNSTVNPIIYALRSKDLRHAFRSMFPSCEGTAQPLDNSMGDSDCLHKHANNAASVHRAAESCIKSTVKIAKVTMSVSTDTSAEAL
Test [3] deals with Gamma-aminobutyric acid receptor subunit alpha-1 (Rattus norvegicus, UniProt P62813). Format: functional.
The target of test [4] is Glutamate receptor ionotropic, NMDA 1 (Rattus norvegicus, UniProt P35439).
Test [5] deals with 5-hydroxytryptamine receptor 2B (Homo sapiens, UniProt P41595). The test is classed as functional, cell-based.
Sequence of 5-hydroxytryptamine receptor 2B (P41595 whole entry): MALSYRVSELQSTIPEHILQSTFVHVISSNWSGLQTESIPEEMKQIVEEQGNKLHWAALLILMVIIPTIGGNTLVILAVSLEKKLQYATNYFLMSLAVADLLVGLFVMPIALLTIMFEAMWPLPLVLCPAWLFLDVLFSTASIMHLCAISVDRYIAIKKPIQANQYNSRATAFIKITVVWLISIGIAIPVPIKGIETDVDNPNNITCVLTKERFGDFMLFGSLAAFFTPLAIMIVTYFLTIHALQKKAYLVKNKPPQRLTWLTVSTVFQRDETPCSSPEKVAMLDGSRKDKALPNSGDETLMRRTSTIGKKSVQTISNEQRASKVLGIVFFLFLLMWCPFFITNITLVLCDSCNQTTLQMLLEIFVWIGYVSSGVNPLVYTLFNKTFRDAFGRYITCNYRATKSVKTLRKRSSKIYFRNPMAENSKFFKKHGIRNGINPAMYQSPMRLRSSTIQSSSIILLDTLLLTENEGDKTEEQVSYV
The target in test [6] is Voltage-gated inwardly rectifying potassium channel KCNH2 (Homo sapiens, UniProt Q12809). Format: functional. Conditions: read-out: AC50.
Sequence of Voltage-gated inwardly rectifying potassium channel KCNH2 (Q12809 whole entry): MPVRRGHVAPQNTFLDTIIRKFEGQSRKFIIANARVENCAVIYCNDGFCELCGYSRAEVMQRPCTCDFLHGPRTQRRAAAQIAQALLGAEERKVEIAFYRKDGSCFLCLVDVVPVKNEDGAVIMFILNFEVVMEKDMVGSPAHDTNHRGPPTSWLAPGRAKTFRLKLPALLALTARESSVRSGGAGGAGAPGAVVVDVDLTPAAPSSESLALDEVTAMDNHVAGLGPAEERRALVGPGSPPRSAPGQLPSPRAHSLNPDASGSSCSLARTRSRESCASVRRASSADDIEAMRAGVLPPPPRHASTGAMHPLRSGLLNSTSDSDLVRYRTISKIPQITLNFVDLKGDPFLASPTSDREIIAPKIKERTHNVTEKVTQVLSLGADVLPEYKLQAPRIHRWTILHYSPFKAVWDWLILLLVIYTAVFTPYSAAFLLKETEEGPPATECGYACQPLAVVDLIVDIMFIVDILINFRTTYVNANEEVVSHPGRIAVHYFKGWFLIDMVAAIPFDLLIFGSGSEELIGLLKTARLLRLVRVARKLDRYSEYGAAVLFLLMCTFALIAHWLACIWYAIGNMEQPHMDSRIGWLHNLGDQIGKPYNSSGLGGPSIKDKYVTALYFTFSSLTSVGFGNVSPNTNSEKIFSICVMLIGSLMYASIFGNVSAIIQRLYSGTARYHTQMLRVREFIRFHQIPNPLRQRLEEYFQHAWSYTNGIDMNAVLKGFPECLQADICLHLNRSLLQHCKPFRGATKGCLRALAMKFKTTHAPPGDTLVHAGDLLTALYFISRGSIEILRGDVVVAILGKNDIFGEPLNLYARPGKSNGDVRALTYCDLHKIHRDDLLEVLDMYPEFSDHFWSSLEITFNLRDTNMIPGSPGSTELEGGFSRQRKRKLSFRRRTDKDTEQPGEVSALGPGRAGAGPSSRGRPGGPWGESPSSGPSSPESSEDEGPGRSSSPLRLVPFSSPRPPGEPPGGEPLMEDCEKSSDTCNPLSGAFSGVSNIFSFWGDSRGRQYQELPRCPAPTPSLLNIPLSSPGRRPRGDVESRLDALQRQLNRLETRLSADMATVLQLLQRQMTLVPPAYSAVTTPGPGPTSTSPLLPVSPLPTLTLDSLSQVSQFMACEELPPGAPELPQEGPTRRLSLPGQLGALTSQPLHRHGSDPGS
For the next test, the target named is T4, Glucocorticoid receptor (Homo sapiens, UniProt P04150).
T4 sequence (P04150 whole entry): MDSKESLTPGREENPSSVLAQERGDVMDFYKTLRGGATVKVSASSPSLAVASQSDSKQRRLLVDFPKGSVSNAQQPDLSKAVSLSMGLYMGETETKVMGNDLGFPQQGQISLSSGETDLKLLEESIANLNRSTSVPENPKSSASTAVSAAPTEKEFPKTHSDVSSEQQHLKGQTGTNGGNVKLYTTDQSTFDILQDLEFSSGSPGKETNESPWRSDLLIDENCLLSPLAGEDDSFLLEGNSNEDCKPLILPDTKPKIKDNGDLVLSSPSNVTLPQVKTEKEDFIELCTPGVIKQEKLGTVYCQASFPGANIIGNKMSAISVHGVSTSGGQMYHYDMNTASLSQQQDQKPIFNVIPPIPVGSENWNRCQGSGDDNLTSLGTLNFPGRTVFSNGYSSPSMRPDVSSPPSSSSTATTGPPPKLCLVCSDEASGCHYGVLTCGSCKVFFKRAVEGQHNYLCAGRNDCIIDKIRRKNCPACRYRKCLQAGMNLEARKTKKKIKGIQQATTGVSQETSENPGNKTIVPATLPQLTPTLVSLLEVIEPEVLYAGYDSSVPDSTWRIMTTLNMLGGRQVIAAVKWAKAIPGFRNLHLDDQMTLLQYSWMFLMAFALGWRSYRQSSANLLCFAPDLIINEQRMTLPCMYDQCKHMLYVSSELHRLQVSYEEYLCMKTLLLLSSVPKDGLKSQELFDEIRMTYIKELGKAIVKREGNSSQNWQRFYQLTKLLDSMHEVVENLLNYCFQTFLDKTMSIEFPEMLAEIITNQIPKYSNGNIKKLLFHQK

The target of test [7] is Delta-type opioid receptor (Homo sapiens, UniProt P41143).
Sequence of Delta-type opioid receptor (P41143 whole entry): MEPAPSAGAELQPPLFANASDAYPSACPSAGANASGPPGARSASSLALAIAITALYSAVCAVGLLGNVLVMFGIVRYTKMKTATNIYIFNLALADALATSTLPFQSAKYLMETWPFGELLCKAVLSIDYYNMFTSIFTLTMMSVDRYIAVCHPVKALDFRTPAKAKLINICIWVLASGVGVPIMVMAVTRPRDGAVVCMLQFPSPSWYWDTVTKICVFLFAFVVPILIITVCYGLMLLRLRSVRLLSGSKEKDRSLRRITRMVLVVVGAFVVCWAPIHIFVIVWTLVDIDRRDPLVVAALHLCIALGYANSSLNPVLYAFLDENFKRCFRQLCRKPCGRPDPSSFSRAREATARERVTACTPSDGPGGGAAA
For test [8], the target named is 3',5'-cyclic-AMP phosphodiesterase 4D (Homo sapiens, UniProt Q08499). The test is classed as functional.
Sequence of 3',5'-cyclic-AMP phosphodiesterase 4D (Q08499 whole entry): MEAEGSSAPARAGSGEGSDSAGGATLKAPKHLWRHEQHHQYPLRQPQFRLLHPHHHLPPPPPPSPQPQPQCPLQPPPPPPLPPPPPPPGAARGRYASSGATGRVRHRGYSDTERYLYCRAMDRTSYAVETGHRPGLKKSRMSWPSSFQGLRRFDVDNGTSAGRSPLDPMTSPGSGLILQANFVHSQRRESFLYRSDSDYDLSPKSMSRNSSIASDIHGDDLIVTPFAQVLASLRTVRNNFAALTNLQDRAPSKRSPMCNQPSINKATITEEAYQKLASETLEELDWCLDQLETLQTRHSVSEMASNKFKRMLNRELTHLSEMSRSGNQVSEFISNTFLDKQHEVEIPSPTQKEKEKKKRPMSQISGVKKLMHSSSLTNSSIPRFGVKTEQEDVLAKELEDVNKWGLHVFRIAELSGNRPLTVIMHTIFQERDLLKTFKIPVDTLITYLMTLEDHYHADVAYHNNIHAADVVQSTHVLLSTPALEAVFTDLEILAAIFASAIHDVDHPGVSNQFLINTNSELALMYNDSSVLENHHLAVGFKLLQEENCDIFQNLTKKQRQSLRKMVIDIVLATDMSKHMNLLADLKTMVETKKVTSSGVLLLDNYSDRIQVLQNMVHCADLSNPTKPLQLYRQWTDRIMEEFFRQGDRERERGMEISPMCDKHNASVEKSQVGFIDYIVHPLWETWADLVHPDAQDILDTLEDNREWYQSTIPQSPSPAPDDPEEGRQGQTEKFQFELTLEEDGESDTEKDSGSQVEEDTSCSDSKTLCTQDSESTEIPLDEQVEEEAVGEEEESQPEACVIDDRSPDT
Test [9] concerns the target Sodium-dependent dopamine transporter (Homo sapiens, UniProt Q01959).
In test [10] the target is cGMP-inhibited 3',5'-cyclic phosphodiesterase 3A (Homo sapiens, UniProt Q14432). The test is classed as functional.
Sequence of cGMP-inhibited 3',5'-cyclic phosphodiesterase 3A (Q14432 whole entry): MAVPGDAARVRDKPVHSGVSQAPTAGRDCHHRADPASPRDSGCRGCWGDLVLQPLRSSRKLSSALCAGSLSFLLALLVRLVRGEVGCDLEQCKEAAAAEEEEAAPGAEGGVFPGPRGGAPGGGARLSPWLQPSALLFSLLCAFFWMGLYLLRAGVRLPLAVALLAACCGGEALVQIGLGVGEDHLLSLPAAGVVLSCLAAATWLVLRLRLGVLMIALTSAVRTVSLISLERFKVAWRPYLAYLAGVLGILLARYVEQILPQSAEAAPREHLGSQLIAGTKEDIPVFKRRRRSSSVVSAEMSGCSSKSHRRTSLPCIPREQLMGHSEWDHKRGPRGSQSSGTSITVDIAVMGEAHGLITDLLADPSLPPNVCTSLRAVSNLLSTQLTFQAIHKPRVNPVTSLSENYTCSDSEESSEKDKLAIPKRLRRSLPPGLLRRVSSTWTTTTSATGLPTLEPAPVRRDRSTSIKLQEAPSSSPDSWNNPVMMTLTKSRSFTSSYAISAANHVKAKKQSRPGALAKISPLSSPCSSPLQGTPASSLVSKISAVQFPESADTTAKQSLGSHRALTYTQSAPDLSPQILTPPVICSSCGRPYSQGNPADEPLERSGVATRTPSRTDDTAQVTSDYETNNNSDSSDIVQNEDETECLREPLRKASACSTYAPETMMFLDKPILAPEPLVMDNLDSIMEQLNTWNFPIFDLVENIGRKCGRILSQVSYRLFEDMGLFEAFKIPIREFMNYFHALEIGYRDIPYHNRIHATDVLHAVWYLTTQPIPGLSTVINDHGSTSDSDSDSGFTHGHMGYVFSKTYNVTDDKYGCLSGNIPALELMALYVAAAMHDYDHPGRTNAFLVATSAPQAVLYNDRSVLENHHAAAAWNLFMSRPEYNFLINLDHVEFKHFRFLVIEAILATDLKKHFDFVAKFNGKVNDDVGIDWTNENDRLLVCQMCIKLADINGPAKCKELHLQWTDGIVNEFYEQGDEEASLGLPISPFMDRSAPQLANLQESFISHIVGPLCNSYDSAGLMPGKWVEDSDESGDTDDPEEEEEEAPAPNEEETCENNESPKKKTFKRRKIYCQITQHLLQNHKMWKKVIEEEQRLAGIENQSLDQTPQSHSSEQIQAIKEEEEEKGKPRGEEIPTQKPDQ
Another test has as its target D(3) dopamine receptor (Homo sapiens, UniProt P35462).

The structures appear in SMILES notation. Bounds are passed on as bounds.

For orientation: AC50 means the midpoint of the concentration-response curve, whichever way the signal moves.
Also: assay procedure not described here.

Sequence of D(3) dopamine receptor (P35462 whole entry): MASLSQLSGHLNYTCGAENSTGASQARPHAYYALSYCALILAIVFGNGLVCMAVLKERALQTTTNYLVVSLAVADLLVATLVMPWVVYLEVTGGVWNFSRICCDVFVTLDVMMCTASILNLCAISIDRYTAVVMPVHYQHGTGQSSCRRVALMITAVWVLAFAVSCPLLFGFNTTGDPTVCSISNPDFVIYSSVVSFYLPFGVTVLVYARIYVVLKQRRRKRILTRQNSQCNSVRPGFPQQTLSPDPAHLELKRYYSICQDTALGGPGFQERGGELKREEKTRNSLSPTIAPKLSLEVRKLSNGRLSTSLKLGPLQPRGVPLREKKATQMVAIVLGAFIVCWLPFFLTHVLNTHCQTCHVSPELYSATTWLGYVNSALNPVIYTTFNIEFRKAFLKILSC

In the case of `COc1ccc(CCNCC(O)COc2cccc(C)c2)cc1OC` (configuration not stated) [BEVANTOLOL], the half-maximal activity concentration (AC50) at Adenosine receptor A1 is > 10 µM; in test [1] it was > 10 µM; in [2], > 10 µM; on Vasopressin V2 receptor it was > 10 µM; on B2 bradykinin receptor it was > 10 µM; on Cannabinoid receptor 1, > 30 µM. The concentration at half-maximal activity (AC50) is > 10 µM in [3]; > 10 µM in test [4]; 14 µM in test [5]; 3.41 µM in [6]; > 10 µM on Glucocorticoid receptor; > 30 µM in [7]. Further, the AC50 is > 30 µM in [8], 16.2 µM in [9], > 30 µM in test [10] and > 30 µM on D(3) dopamine receptor.

Regarding `CC(C)(C)NCC(O)COc1cccc2c1CCC(=O)N2` (configuration not stated) [CARTEOLOL], the AC50 at Adenosine receptor A1 is > 10 µM; in test [1] it was > 10 µM; in test [2], > 10 µM; on Vasopressin V2 receptor it was > 10 µM; at B2 bradykinin receptor it was > 10 µM; on Cannabinoid receptor 1, > 30 µM. The concentration at half-maximal activity (AC50) in test [3] was > 10 µM; in [4] it was > 10 µM; in [5], > 10 µM; in test [6], > 30 µM; on Glucocorticoid receptor, > 10 µM; in test [7] it was > 30 µM. For the same molecule, the concentration at half-maximal activity (AC50) in test [8] was > 30 µM; in [9], > 10 µM; in test [10], > 30 µM; at D(3) dopamine receptor, > 30 µM.

On to `Nc1nc(Cl)nc2c1ncn2[C@H]1C[C@H](O)[C@@H](CO)O1` [CLADRIBINE], for which the AC50 (at Adenosine receptor A1; in test [1]; in test [2]; at Vasopressin V2 receptor; at B2 bradykinin receptor; on Cannabinoid receptor 1) was > 30 µM each time. In addition, the AC50 in test [4] was > 30 µM; in test [5], > 30 µM; in test [6], > 30 µM; on Glucocorticoid receptor, > 30 µM; in [7], > 30 µM; in test [8], 0.97 µM. Besides, the AC50 in [9] is > 30 µM; in [10], 28 µM; at D(3) dopamine receptor, > 30 µM.

For `Fc1ccc(C(c2ccccc2)(c2ccccc2F)n2ccnc2)cc1` (configuration not stated) [FLUTRIMAZOLE], the AC50 (on Adenosine receptor A1; in [1]; in [2]; on Vasopressin V2 receptor; at B2 bradykinin receptor; at Cannabinoid receptor 1) was > 30 µM throughout. Moreover, the concentration at half-maximal activity (AC50) is > 30 µM in [3]; > 30 µM in test [4]; > 30 µM in [5]; 1.68 µM in [6]; > 30 µM on Glucocorticoid receptor; > 30 µM in [7]. For the same molecule, the AC50 was > 30 µM in test [8], 23 µM in test [9], > 30 µM in test [10] and > 30 µM at D(3) dopamine receptor.

As for `Cc1c(OCC(F)(F)F)ccnc1C[S+]([O-])c1nc2ccccc2[nH]1` (configuration not stated) [LANSOPRAZOLE], the AC50 is 16.8 µM on Adenosine receptor A1; > 10 µM in test [1]; > 10 µM in test [2]; > 30 µM on Vasopressin V2 receptor; > 30 µM at B2 bradykinin receptor; > 30 µM on Cannabinoid receptor 1. Further, the half-maximal activity concentration (AC50) is > 10 µM in [3]; > 10 µM in test [4]; > 10 µM in test [5]; > 30 µM in test [6]; > 30 µM at Glucocorticoid receptor; 8.3 µM in [7]. The AC50 (in test [8]; in [9]; in test [10]; at D(3) dopamine receptor) was > 10 µM each time.

Consider `NC(=O)CN1CC(O)CC1=O` (configuration not stated) [OXIRACETAM], for which the AC50 (at Adenosine receptor A1; in [1]; in test [2]; at Vasopressin V2 receptor; at B2 bradykinin receptor; on Cannabinoid receptor 1) was > 30 µM each time. For the same molecule, the AC50 (in test [3]; in test [4]; in [5]; in test [6]; at Glucocorticoid receptor; in [7]) was > 30 µM each time. For the same molecule, the half-maximal activity concentration (AC50) (in [8]; in test [9]; in test [10]; on D(3) dopamine receptor) was > 30 µM each time.

Consider `C[C@@H]1O[C@@H](O[C@@H]2C=C3CC[C@@H]4[C@H](CC[C@]5(C)[C@@H](c6ccc(=O)oc6)CC[C@]45O)[C@@]3(C)CC2)[C@H](O)[C@H](O)[C@H]1O` [PROSCILLARIDIN], for which the concentration at half-maximal activity (AC50) (on Adenosine receptor A1; in test [1]; in test [2]; at Vasopressin V2 receptor; at B2 bradykinin receptor; on Cannabinoid receptor 1) was > 30 µM each time. Further, the AC50 (in test [3]; in test [4]; in test [5]; in test [6]; at Glucocorticoid receptor; in test [7]) was > 30 µM each time. For the same molecule, the concentration at half-maximal activity (AC50) (in test [8]; in test [9]; in test [10]; at D(3) dopamine receptor) was > 30 µM each time.

As for `COc1cccc(C2(O)CCCCC2CN(C)C)c1` (configuration not stated) [TRAMADOL], the half-maximal activity concentration (AC50) was > 30 µM at Adenosine receptor A1; > 10 µM in test [1]; > 10 µM in test [2]; > 30 µM on Vasopressin V2 receptor; > 30 µM at B2 bradykinin receptor; > 30 µM at Cannabinoid receptor 1. The concentration at half-maximal activity (AC50) is > 10 µM in [3]; > 10 µM in test [4]; > 10 µM in [5]; > 30 µM in [6]; > 30 µM at Glucocorticoid receptor; > 30 µM in [7]. In addition, the concentration at half-maximal activity (AC50) in test [8] is > 30 µM; in test [9], > 10 µM; in test [10] it was > 30 µM; on D(3) dopamine receptor it was > 10 µM.

The record behind these values is ChEMBL document CHEMBL5291721, “A preclinical secondary pharmacology resource illuminates target-adverse drug reaction associations of marketed drugs” (Nat Commun, 2023).
